Data published in ChEMBL document CHEMBL2069296, “A novel series of G-quadruplex ligands with selectivity for HIF-expressing osteosarcoma and renal cancer cell lines” (Bioorg Med Chem Lett, 2012).
The source made the active and inactive calls. No cut-off for these calls is given here.

Assays:
Nucleic Acid [1] = test: Binding affinity to HIF2alpha DNA by surface plasmon resonance assay; type: nucleic-acid assay
[2] = Antiproliferative activity against human RCC4 cells after 96 hrs by SRB assay; type: functional, cell-based; details: RCC4, 96 h
[3] = Therapeutic index, ratio of IC50 for human MG63 cells to IC50 for human WI38 cells; type: cell-based, WI-38; details: MG63 cells and WI38 cells, read-out: Ratio IC50
[4] = biological target: Hypoxia-inducible factor 1-alpha (Homo sapiens) (UniProt Q16665); test: Inhibition of HIF1alpha in human U2OS cells in hypoxia condition; type: cell-based
Nucleic Acid [5] = test: Binding affinity to HIF1alpha DNA by surface plasmon resonance assay; type: nucleic-acid assay
HOS-TE85 = test: Antiproliferative activity against human MNNG-HOS cells after 96 hrs by SRB assay; type: functional, cell-based; details: HOS-TE85, 96 h
[6] = Therapeutic index, ratio of IC50 for human MIAPaCa2 cells to IC50 for human WI38 cells; type: cell-based, MIA PaCa-2; details: MIAPaCa2 cells and WI38 cells, read-out: Ratio IC50
[7] = Ratio of IC50 for human RCC4/VHL cells to IC50 for human RCC4 cells; type: functional
PC-3 = test: Antiproliferative activity against human PC3 cells after 96 hrs by SRB assay; type: functional, cell-based; details: PC-3, 96 h
[8] = Therapeutic index, ratio of IC50 for human U2OS cells to IC50 for human WI38 cells; type: cell-based; details: U2OS cells and WI38 cells, read-out: Ratio IC50
[9] = Ratio of cell viability in human RCC4/VHL cells to cell viability in human RCC4 cells in hypoxia condition; type: functional
Nucleic Acid [10] = test: Binding affinity to HIF1alpha DNA in by circular dichroism; type: nucleic-acid assay
MCF7 = test: Antiproliferative activity against human MCF7 cells after 96 hrs by SRB assay; type: functional, cell-based; details: MCF7, 96 h
A549 = test: Antiproliferative activity against human A549 cells after 96 hrs by SRB assay; type: functional, cell-based; details: A549, 96 h
HOS = test: Antiproliferative activity against human HOS cells after 96 hrs by SRB assay; type: functional, cell-based
[11] = Antiproliferative activity against human TC135 cells after 96 hrs by SRB assay; type: functional, cell-based; details: TC135, 96 h
[12] = Antiproliferative activity against human 786-O cells after 96 hrs by SRB assay; type: functional, cell-based; details: 786-0, 96 h
[13] = Therapeutic index, ratio of IC50 for human 786-O cells to IC50 for human WI38 cells; type: cell-based, WI-38; details: 786-O cells and WI38 cells, read-out: Ratio IC50
[14] = Therapeutic index, ratio of IC50 for human A549 cells to IC50 for human WI38 cells; type: cell-based; details: A549 cells and WI38 cells, read-out: Ratio IC50
[15] = Antiproliferative activity against human TC71 cells after 96 hrs by SRB assay; type: functional, cell-based; details: TC-71, 96 h
HPAC = test: Antiproliferative activity against human HPAC cells after 96 hrs by SRB assay; type: functional, cell-based
[16] = Therapeutic index, ratio of IC50 for human TC135 cells to IC50 for human WI38 cells; type: cell-based; details: TC135 cells and WI38 cells, read-out: Ratio IC50
[17] = biological target: T1, Hypoxia inducible factors; HIF-1-alpha, HIF-2-alpha (Homo sapiens) (UniProt Q16665+Q99814); test: Inhibition of HIF1 transactivation in human U2OS cells after 4 hrs by luciferase reporter gene assay; type: cell-based
OST = test: Antiproliferative activity against human OST cells after 96 hrs by SRB assay; type: functional, cell-based
MIA PaCa-2 = test: Antiproliferative activity against human MIAPaCa2 cells after 96 hrs by SRB assay; type: functional, cell-based; details: MIA PaCa-2, 96 h
A498 = test: Antiproliferative activity against human A498 cells after 96 hrs by SRB assay; type: functional, cell-based; details: A498, 96 h
[18] = Antiproliferative activity against human TC32 cells after 96 hrs by SRB assay; type: functional, cell-based; details: TC-32, 96 h
[19] = biological target: Hypoxia-inducible factor 1-alpha (Homo sapiens) (UniProt Q16665); test: Inhibition of HIF1alpha in human U2OS cells in normaxia condition; type: cell-based
[20] = Therapeutic index, ratio of IC50 for human MNNG-HOS cells to IC50 for human WI38 cells; type: cell-based, HOS-TE85; details: MNNG-HOS cells and WI38 cells, read-out: Ratio IC50
[21] = Therapeutic index, ratio of IC50 for human OST cells to IC50 for human WI38 cells; type: cell-based; details: OST cells and WI38 cells, read-out: Ratio IC50
Nucleic Acid [22] = test: Binding affinity to 5'-GGGGCGGGCACGGGGCGGG-3' DNA by surface plasmon resonance; type: nucleic-acid assay
U2OS [23] = test: Antiproliferative activity against human U2OS cells after 96 hrs by SRB assay; type: functional, cell-based
[24] = Therapeutic index, ratio of IC50 for human A498 cells to IC50 for human WI38 cells; type: cell-based; details: A498 cells and WI38 cells, read-out: Ratio IC50
U2OS [25] = test: Downregulation of HIF1alpha mRNA level in human U2OS cells at 5 fold IC50 concentration after 4 hrs by RT-PCR analysis relative to untreated control; type: functional
SAOS-2 = test: Antiproliferative activity against human Saos2 cells after 96 hrs by SRB assay; type: functional, cell-based; details: SAOS-2, 96 h
PANC-1 = test: Antiproliferative activity against human PANC1 cells after 96 hrs by SRB assay; type: functional, cell-based; details: PANC-1, 96 h
[26] = biological target: T1, Hypoxia inducible factors; HIF-1-alpha, HIF-2-alpha (Homo sapiens); test: Inhibition of HIF1 transactivation in human U2OS cells after 4 hrs by luciferase reporter gene assay relative to untreated control; type: cell-based; details: concentration not given here
MG-63 = test: Antiproliferative activity against human MG63 cells after 96 hrs by SRB assay; type: functional, cell-based; details: MG-63, 96 h
WI-38 = test: Cytotoxicity against human WI38 after 96 hrs by SRB assay; type: cell-based; details: WI-38, 96 h
[27] = Antiproliferative activity against human RCC4/VHL cells after 96 hrs by SRB assay; type: functional, cell-based
U2OS [28] = test: Downregulation of HIF1alpha protein level in human U2OS cells at 5 fold IC50 concentration within 2 hrs by Western blot analysis; type: functional, cell-based

Hypoxia-inducible factor 1-alpha (Homo sapiens), sequence (Q16665 whole entry, looked up): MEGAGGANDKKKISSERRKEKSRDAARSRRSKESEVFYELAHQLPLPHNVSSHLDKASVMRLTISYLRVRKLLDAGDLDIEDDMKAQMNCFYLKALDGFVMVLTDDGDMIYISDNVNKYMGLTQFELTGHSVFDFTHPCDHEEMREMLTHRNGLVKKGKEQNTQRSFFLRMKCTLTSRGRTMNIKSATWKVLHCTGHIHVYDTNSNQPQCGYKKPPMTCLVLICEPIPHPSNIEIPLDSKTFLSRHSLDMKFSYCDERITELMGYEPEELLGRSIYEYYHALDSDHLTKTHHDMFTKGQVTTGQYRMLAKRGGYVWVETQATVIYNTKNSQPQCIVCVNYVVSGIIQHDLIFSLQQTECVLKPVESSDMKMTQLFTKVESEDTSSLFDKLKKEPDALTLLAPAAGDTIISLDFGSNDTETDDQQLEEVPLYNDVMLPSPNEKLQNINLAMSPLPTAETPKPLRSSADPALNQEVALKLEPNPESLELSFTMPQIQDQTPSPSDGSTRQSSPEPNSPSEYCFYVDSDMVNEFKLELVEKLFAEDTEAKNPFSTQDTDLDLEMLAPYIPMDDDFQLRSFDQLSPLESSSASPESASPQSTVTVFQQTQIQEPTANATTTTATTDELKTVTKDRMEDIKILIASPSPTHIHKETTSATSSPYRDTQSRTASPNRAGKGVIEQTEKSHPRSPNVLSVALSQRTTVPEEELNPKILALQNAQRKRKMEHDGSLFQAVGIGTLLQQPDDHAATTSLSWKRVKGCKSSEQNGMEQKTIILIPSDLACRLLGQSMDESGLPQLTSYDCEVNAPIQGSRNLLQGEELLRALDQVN

## CCN(CC)CC(=O)Nc1cccc(-n2cc(-c3ccc4ccc(-c5cn(-c6cccc(NC(=O)CN(CC)CC)c6)nn5)cc4c3)nn2)c1
Nucleic Acid [1]
  K: 0.27 ×10⁷ /M
[2]
  IC50: 1.3 µM
[3]
  selectivity ratio: 40
[4]
  inhibition: Dose-dependent effect
Nucleic Acid [5]
  K: 0.29 ×10⁷ /M
HOS-TE85
  IC50: 3.2 µM
[6]
  selectivity ratio: 40
[7]
  Ratio IC50: 2
PC-3
  IC50: 8.05 µM
[8]
  selectivity ratio: 40
[9]
  Ratio: 2.1
Nucleic Acid [10]
  Activity: Active
MCF7
  IC50: 63 µM
A549
  IC50: 60 µM
HOS
  IC50: 2.4 µM
[11]
  IC50: 2.4 µM
[12]
  IC50: 2.3 µM
[13]
  selectivity ratio: 40
[14]
  selectivity ratio: 40
[15]
  IC50: 7.8 µM
HPAC
  IC50: 7.3 µM
[16]
  selectivity ratio: 40
[17]
  inhibition: Dose-dependent effect
OST
  IC50: 2.6 µM
MIA PaCa-2
  IC50: 16.8 µM
A498
  IC50: 2.5 µM
[18]
  IC50: 0.9 µM
[19]
  inhibition: Dose-dependent effect
[20]
  selectivity ratio: 40
[21]
  selectivity ratio: 40
Nucleic Acid [22]
  K: < 100000 M⁻¹
U2OS [23]
  IC50: 5.5 µM
[24]
  selectivity ratio: 40
U2OS [25]
  Activity: 79.7%
SAOS-2
  IC50: 2.6 µM
PANC-1
  IC50: 31 µM
[26]
  inhibition: 7%
MG-63
  IC50: 7.9 µM
WI-38
  IC50: 91 µM
[27]
  IC50: 2.6 µM
U2OS [28]
  Activity: Active
